From article PMC11992225, “Antibacterial compounds against non-growing and intracellular bacteria” (npj Antimicrobials and Resistance, 2025)
Values joined by “and” are separate entries in the source; they are usually repeats but may differ in a detail not shown here. Identical values can stand only once.

Assays:
non-growing UPEC CFT073 = assay: Dose-dependent killing analysis (CFU spot-plating) of stationary-phase UPEC; assay type: cell-based, Escherichia coli; conditions: for log10(CFU/ml) after treatment: individual replicates
Outline: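 Killing assessed by CFU counts: overnight 37 °C LB agar spot plates (10 μl drops of 10-fold PBS dilutions) scored at the lowest dilution with distinct colonies. Samples were compound-treated non-growing UPEC CFT073, 200 μl per well. Performed as three biological replicates.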

[1] = tested on: non-growing S. aureus DSM2569; assay: Dose-dependent killing analysis (CFU spot-plating) of stationary-phase S. aureus; assay type: cell-based, Staphylococcus aureus; conditions: for killing, average Δlog10(CFU/ml) / log10(CFU/ml) of treated nongrowing bacteria (single replicates) / log10(CFU/ml) after treatment: S. aureus; for log10(CFU/ml) of treated nongrowing bacteria (single replicates): before treatment 9,097; for log10(CFU/ml) after treatment: individual replicates
Outline: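 Survival was scored as CFU after overnight growth at 37 °C on LB agar, using spots from 10-fold PBS dilutions of treated cultures. Non-growing S. aureus DSM2569 had been exposed to compound for 24 h in 1:4 CA-MHB, pH 7.4. Three biological replicates were run.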

[2] = tested on: non-growing P. aeruginosa DSM1117; assay: Dose-dependent killing analysis (CFU spot-plating) of stationary-phase P. aeruginosa; assay type: cell-based, Pseudomonas aeruginosa; conditions: for killing, average Δlog10(CFU/ml) / log10(CFU/ml) of treated nongrowing bacteria (single replicates) / log10(CFU/ml) after treatment: P. aeruginosa; for log10(CFU/ml) of treated nongrowing bacteria (single replicates): before treatment 8.887; for log10(CFU/ml) after treatment: individual replicates
Outline: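 Viability by CFU: samples serially diluted 10-fold in PBS, spotted on LB agar, grown overnight at 37 °C, and colonies counted at the lowest resolvable dilution. Non-growing P. aeruginosa DSM1117 had been dosed for 24 h in 1:4 CA-MHB (pH 7.4); three biological replicates.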

N[C@@H]1CN(c2c(F)cc3c(=O)c(C(=O)O)cn([C@@H]4C[C@@H]4F)c3c2Cl)CC12CC2 [Sitafloxacin]
bactericidal activity against non-growing UPEC (CFU counting) (non-growing UPEC CFT073; 24 h treatment of stationary phase culture): most potent and bactericidal | killing, average Δlog10(CFU/ml) (non-growing UPEC CFT073; E. coli in 1:4 CA-MHB (pH 7.4), drug concentration 0.25): 1.161 log10(CFU/ml) | log10(CFU/ml) of treated nongrowing bacteria (single replicates) (non-growing UPEC CFT073; E. coli in 1:4 CA-MHB (pH 7.4), drug concentration 0.25, before treatment 8.977): 8.415 log10(CFU/ml) and 7.602 log10(CFU/ml) and 7.431 log10(CFU/ml) | killing, average Δlog10(CFU/ml) (non-growing UPEC CFT073; E. coli in 1:4 CA-MHB (pH 7.4), drug concentration 0.5): 2.277 log10(CFU/ml) | log10(CFU/ml) of treated nongrowing bacteria (single replicates) (non-growing UPEC CFT073; E. coli in 1:4 CA-MHB (pH 7.4), drug concentration 0.5, before treatment 8.977): 7.255 log10(CFU/ml) and 6.699 log10(CFU/ml) and 6.146 log10(CFU/ml) | killing, average Δlog10(CFU/ml) (non-growing UPEC CFT073; E. coli in 1:4 CA-MHB (pH 7.4), drug concentration 1): 3.175 log10(CFU/ml) | log10(CFU/ml) of treated nongrowing bacteria (single replicates) (non-growing UPEC CFT073; E. coli in 1:4 CA-MHB (pH 7.4), drug concentration 1, before treatment 8.977): 6.204 log10(CFU/ml) and 5.903 log10(CFU/ml) and 5.301 log10(CFU/ml) | killing, average Δlog10(CFU/ml) (non-growing UPEC CFT073; E. coli in 1:4 CA-MHB (pH 7.4), drug concentration 2.5): 4.145 log10(CFU/ml) | log10(CFU/ml) of treated nongrowing bacteria (single replicates) (non-growing UPEC CFT073; E. coli in 1:4 CA-MHB (pH 7.4), drug concentration 2.5, before treatment 8.977): 5.176 log10(CFU/ml) and 4.477 log10(CFU/ml) and 4.845 log10(CFU/ml) | killing, average Δlog10(CFU/ml) (non-growing UPEC CFT073; E. coli in 1:4 CA-MHB (pH 7.4), drug concentration 5): 4.067 log10(CFU/ml) | log10(CFU/ml) of treated nongrowing bacteria (single replicates) (non-growing UPEC CFT073; E. coli in 1:4 CA-MHB (pH 7.4), drug concentration 5, before treatment 8.977): 5.255 log10(CFU/ml) and 4.699 log10(CFU/ml) and 4.778 log10(CFU/ml) | killing, average Δlog10(CFU/ml) (non-growing UPEC CFT073; E. coli in 1:4 CA-MHB (pH 7.4), drug concentration 10): 4.500 log10(CFU/ml) | log10(CFU/ml) of treated nongrowing bacteria (single replicates) (non-growing UPEC CFT073; E. coli in 1:4 CA-MHB (pH 7.4), drug concentration 10, before treatment 8.977): 4.954 log10(CFU/ml) and =<4 log10(CFU/ml) and 4.477 log10(CFU/ml) | killing, average Δlog10(CFU/ml) (non-growing UPEC CFT073; E. coli in LPM (pH 5.5), drug concentration 0.25): -0.135 log10(CFU/ml) | log10(CFU/ml) of treated nongrowing bacteria (single replicates) (non-growing UPEC CFT073; E. coli in LPM (pH 5.5), drug concentration 0.25, before treatment 7.350): 7.000 log10(CFU/ml) and 7.176 log10(CFU/ml) and 8.279 log10(CFU/ml) | killing, average Δlog10(CFU/ml) (non-growing UPEC CFT073; E. coli in LPM (pH 5.5), drug concentration 0.5): 0.023 log10(CFU/ml) | log10(CFU/ml) of treated nongrowing bacteria (single replicates) (non-growing UPEC CFT073; E. coli in LPM (pH 5.5), drug concentration 0.5, before treatment 7.350): 6.778 log10(CFU/ml) and 7.000 log10(CFU/ml) and 8.204 log10(CFU/ml) | killing, average Δlog10(CFU/ml) (non-growing UPEC CFT073; E. coli in LPM (pH 5.5), drug concentration 1): -0.037 log10(CFU/ml) | log10(CFU/ml) of treated nongrowing bacteria (single replicates) (non-growing UPEC CFT073; E. coli in LPM (pH 5.5), drug concentration 1, before treatment 7.350): 7.146 log10(CFU/ml) and 7.114 log10(CFU/ml) and 7.903 log10(CFU/ml) | killing, average Δlog10(CFU/ml) (non-growing UPEC CFT073; E. coli in LPM (pH 5.5), drug concentration 2.5): 0.324 log10(CFU/ml) | log10(CFU/ml) of treated nongrowing bacteria (single replicates) (non-growing UPEC CFT073; E. coli in LPM (pH 5.5), drug concentration 2.5, before treatment 7.350): 7.000 log10(CFU/ml) (2×) and 7.079 log10(CFU/ml) | killing, average Δlog10(CFU/ml) (non-growing UPEC CFT073; E. coli in LPM (pH 5.5), drug concentration 5): 1.016 log10(CFU/ml) | log10(CFU/ml) of treated nongrowing bacteria (single replicates) (non-growing UPEC CFT073; E. coli in LPM (pH 5.5), drug concentration 5, before treatment 7.350): 6.301 log10(CFU/ml) and 6.954 log10(CFU/ml) and 5.748 log10(CFU/ml) | killing, average Δlog10(CFU/ml) (non-growing UPEC CFT073; E. coli in LPM (pH 5.5), drug concentration 10): 1.383 log10(CFU/ml) | log10(CFU/ml) of treated nongrowing bacteria (single replicates) (non-growing UPEC CFT073; E. coli in LPM (pH 5.5), drug concentration 10, before treatment 7.350): 6.279 log10(CFU/ml) and 6.544 log10(CFU/ml) and 5.079 log10(CFU/ml) | killing of non-growing S. aureus (reduction of bacterial counts) ([1]; 10 to 0.1 μM, 24 h treatment): the most activity | killing, average Δlog10(CFU/ml) ([1]; drug concentration 0.1): 0.348 log10(CFU/ml) | log10(CFU/ml) of treated nongrowing bacteria (single replicates) ([1]; drug concentration 0.1): 8.602 log10(CFU/ml) and 8.881 log10(CFU/ml) and 8.763 log10(CFU/ml) | killing, average Δlog10(CFU/ml) ([1]; drug concentration 0.5): 1.504 log10(CFU/ml) | log10(CFU/ml) of treated nongrowing bacteria (single replicates) ([1]; drug concentration 0.5): 7.223 log10(CFU/ml) and 7.833 log10(CFU/ml) and 7.724 log10(CFU/ml) | killing, average Δlog10(CFU/ml) ([1]; drug concentration 2.5): 2.447 log10(CFU/ml) | log10(CFU/ml) of treated nongrowing bacteria (single replicates) ([1]; drug concentration 2.5): 6.820 log10(CFU/ml) and 6.716 log10(CFU/ml) and 6.413 log10(CFU/ml) | killing, average Δlog10(CFU/ml) ([1]; drug concentration 10): 2.500 log10(CFU/ml) | log10(CFU/ml) of treated nongrowing bacteria (single replicates) ([1]; drug concentration 10): 6.908 log10(CFU/ml) and 6.613 log10(CFU/ml) and 6.270 log10(CFU/ml) | killing, average Δlog10(CFU/ml) ([2]; drug concentration 0.1): 1.534 log10(CFU/ml) | log10(CFU/ml) of treated nongrowing bacteria (single replicates) ([2]; drug concentration 0.1): 7.699 log10(CFU/ml) and 7.362 log10(CFU/ml) and 7.000 log10(CFU/ml) | killing, average Δlog10(CFU/ml) ([2]; drug concentration 0.5): 3.935 log10(CFU/ml) | log10(CFU/ml) of treated nongrowing bacteria (single replicates) ([2]; drug concentration 0.5): 5.954 log10(CFU/ml) and 4.903 log10(CFU/ml) and =<4 log10(CFU/ml) | killing, average Δlog10(CFU/ml) ([2]; drug concentration 2.5): 4.787 log10(CFU/ml) | log10(CFU/ml) of treated nongrowing bacteria (single replicates) ([2]; drug concentration 2.5): =<4 log10(CFU/ml) (2×) and 4.301 log10(CFU/ml) | killing, average Δlog10(CFU/ml) ([2]; drug concentration 10): 4.353 log10(CFU/ml) | log10(CFU/ml) of treated nongrowing bacteria (single replicates) ([2]; drug concentration 10): 5.000 log10(CFU/ml) and 4.602 log10(CFU/ml) and =<4 log10(CFU/ml) | reduction of bacterial counts, stationary phase P. aeruginosa ([2]; at 0.5 µM, 24 h treatment): more than four | reduction of bacterial counts, non-growing P. aeruginosa ([2]; at 2.5 µM, 1:4 CA-MHB pH 7.4, 24 h treatment): more than four

COc1c(N2C[C@@H]3CCCN[C@@H]3C2)c(F)cc2c(=O)c(C(=O)O)cn(C3CC3)c12 [Moxifloxacin]
log10(CFU/ml) after treatment (non-growing UPEC CFT073; E. coli in 1:4 CA-MHB (pH 7.4), concentration 0.25): 8.602 log10(CFU/ml) and 8.380 log10(CFU/ml) and 8.255 log10(CFU/ml) | log10(CFU/ml) after treatment (non-growing UPEC CFT073; E. coli in 1:4 CA-MHB (pH 7.4), concentration 0.5): 8.041 log10(CFU/ml) and 7.903 log10(CFU/ml) and 7.699 log10(CFU/ml) | log10(CFU/ml) after treatment (non-growing UPEC CFT073; E. coli in 1:4 CA-MHB (pH 7.4), concentration 1): 7.415 log10(CFU/ml) and 6.845 log10(CFU/ml) and 6.903 log10(CFU/ml) | log10(CFU/ml) after treatment (non-growing UPEC CFT073; E. coli in 1:4 CA-MHB (pH 7.4), concentration 2.5): 5.954 log10(CFU/ml) and 5.230 log10(CFU/ml) and 5.380 log10(CFU/ml) | log10(CFU/ml) after treatment (non-growing UPEC CFT073; E. coli in 1:4 CA-MHB (pH 7.4), concentration 5): 5.602 log10(CFU/ml) and 5.204 log10(CFU/ml) and 5.146 log10(CFU/ml) | log10(CFU/ml) after treatment (non-growing UPEC CFT073; E. coli in 1:4 CA-MHB (pH 7.4), concentration 10): 6.114 log10(CFU/ml) and 4.903 log10(CFU/ml) and 5.000 log10(CFU/ml) | log10(CFU/ml) after treatment ([1]; concentration 0.1): 8.934 log10(CFU/ml) and 9.196 log10(CFU/ml) and 8.708 log10(CFU/ml) | log10(CFU/ml) after treatment ([1]; concentration 0.5): 8.748 log10(CFU/ml) and 9.004 log10(CFU/ml) and 8.204 log10(CFU/ml) | log10(CFU/ml) after treatment ([1]; concentration 2.5): 8.505 log10(CFU/ml) and 8.431 log10(CFU/ml) and 8.167 log10(CFU/ml) | log10(CFU/ml) after treatment ([1]; concentration 10): 8.158 log10(CFU/ml) and 8.021 log10(CFU/ml) and 7.519 log10(CFU/ml) | log10(CFU/ml) after treatment ([2]; concentration 0.1): 8.699 log10(CFU/ml) and 8.778 log10(CFU/ml) and 8.477 log10(CFU/ml) | killing, average Δlog10(CFU/ml) ([2]; concentration 0.1, vs CFU before treatment): 0.236 log10(CFU/ml) | log10(CFU/ml) after treatment ([2]; concentration 0.5): 8.301 log10(CFU/ml) and 7.778 log10(CFU/ml) (2×) | killing, average Δlog10(CFU/ml) ([2]; concentration 0.5, vs CFU before treatment): 0.935 log10(CFU/ml) | log10(CFU/ml) after treatment ([2]; concentration 2.5): 5.845 log10(CFU/ml) and 6.301 log10(CFU/ml) and 4.699 log10(CFU/ml) | killing, average Δlog10(CFU/ml) ([2]; concentration 2.5, vs CFU before treatment): 3.272 log10(CFU/ml) | log10(CFU/ml) after treatment ([2]; concentration 10): =<4 log10(CFU/ml) (2×) and 4.477 log10(CFU/ml) | killing, average Δlog10(CFU/ml) ([2]; concentration 10, vs CFU before treatment): 4.728 log10(CFU/ml)
